Test results reported in ChEMBL document CHEMBL4819064, “Discovery of new pyrimidopyrrolizine/indolizine-based derivatives as P-glycoprotein inhibitors: Design, synthesis, cytotoxicity, and MDR reversal activities” (Eur J Med Chem, 2021).

What was measured:
MCF7 [1] = assay: Cell cycle arrest in human MCF7 cells assessed as accumulation at G1 phase at 0.250 uM incubated for 72 hrs by PI staining based flow cytometric analysis (reference value: 56.9 +/- 5.6 %); type: functional; details: dose 0.25 µM
MCF7 [2] = assay: Cell cycle arrest in human MCF7 cells assessed as accumulation at S phase at 0.250 uM incubated for 72 hrs by PI staining based flow cytometric analysis (reference value: […] +/- 2.6 %); type: functional; details: dose 0.25 µM
MCF7 [3] = assay: Induction of apoptosis in human MCF7 cells assessed as viable cells at 0.5 uM after 72 hrs by Annexin V-FITC/propidium iodide staining-based flow cytometric analysis (reference value: 86.4 %); type: functional; details: read-out: Activity
MCF7 [4] = assay: Cell cycle arrest in human MCF7 cells assessed as accumulation at G2/M phase at 0.250 uM incubated for 72 hrs by PI staining based flow cytometric analysis (reference value: 15 +/- 1.5 %); type: functional; details: dose 0.25 µM
[5] = target: ATP-dependent translocase ABCB1 (Homo sapiens, UniProt P08183); assay: Inhibition of P-gp activity in human MCF7/ADR cells at 1000 nM after 72 hrs by RT-PCR analysis relative to control; type: cell-based, NCI/ADR-RES; details: nci/adr-res, 72 h, 1 µM
ATP-dependent translocase ABCB1, sequence (P08183 whole entry): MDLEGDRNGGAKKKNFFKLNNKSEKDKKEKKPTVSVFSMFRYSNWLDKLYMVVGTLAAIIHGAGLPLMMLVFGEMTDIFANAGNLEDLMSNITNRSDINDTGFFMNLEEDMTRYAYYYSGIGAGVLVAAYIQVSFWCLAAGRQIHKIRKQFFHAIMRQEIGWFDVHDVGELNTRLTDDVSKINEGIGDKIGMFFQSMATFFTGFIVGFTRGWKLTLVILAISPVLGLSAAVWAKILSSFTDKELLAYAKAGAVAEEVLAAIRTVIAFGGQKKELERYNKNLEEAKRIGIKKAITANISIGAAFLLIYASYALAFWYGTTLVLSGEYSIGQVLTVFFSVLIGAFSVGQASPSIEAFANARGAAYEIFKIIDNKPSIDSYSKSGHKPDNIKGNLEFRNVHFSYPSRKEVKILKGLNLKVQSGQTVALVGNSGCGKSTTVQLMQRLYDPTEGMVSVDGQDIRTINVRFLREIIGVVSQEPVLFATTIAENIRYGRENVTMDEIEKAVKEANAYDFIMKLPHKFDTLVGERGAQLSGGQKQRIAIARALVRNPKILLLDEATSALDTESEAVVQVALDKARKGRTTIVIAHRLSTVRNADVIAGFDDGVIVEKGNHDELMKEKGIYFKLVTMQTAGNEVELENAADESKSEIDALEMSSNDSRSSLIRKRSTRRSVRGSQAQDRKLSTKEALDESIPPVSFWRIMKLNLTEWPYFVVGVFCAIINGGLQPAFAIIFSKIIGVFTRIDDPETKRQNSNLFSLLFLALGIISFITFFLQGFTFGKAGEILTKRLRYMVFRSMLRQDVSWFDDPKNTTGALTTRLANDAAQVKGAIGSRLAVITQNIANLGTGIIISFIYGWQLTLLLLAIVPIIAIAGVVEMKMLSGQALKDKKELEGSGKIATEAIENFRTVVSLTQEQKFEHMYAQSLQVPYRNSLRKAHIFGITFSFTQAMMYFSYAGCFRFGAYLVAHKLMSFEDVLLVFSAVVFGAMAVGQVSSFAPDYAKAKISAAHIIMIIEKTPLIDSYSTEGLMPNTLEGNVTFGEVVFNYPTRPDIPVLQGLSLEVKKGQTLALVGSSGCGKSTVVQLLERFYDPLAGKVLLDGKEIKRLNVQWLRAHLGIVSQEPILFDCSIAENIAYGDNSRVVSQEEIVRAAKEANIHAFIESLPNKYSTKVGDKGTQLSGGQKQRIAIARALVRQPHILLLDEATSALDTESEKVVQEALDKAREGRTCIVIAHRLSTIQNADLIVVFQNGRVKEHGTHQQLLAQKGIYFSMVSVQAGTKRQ

MCF7 [6] = assay: Induction of apoptosis in human MCF7 cells assessed as early apoptotic cells at 0.250 uM after 72 hrs by Annexin V-FITC/propidium iodide staining-based flow cytometric analysis (reference value: 4.6 %); type: functional; details: dose 0.25 µM
[7] = Selectivity index, ratio of IC50 for human MRC5 cells to IC50 for human A2780 cells; type: toxicity; details: MRC5 cells versus A2780 cells, read-out: Ratio IC50
MCF7 [8] = assay: Cell cycle arrest in human MCF7 cells assessed as accumulation at pre-G1 phase at 0.250 uM incubated for 72 hrs by PI staining based flow cytometric analysis (reference value: 1.6 +/- 0.2 %); type: functional; details: dose 0.25 µM
MCF7 [9] = assay: Cell cycle arrest in human MCF7 cells assessed as accumulation at S phase at 0.125 uM incubated for 72 hrs by PI staining based flow cytometric analysis (reference value: […] +/- 2.6 %); type: functional
NCI/ADR-RES [10] = assay: Synergistic cytotoxicity against human MCF7/ADR cells assessed as combination index at 1 uM after 72 hrs in presence of 0.25 uM doxorubicin by MTT assay; type: functional
NCI/ADR-RES [11] = assay: Synergistic cytotoxicity against human MCF7/ADR cells assessed as combination index at 1 uM after 72 hrs in presence of 1 uM doxorubicin by MTT assay; type: functional
NCI/ADR-RES [12] = assay: Cytotoxicity against human MCF7/ADR cells assessed as reduction in cell viability incubated for 72 hrs by MTT assay
NCI/ADR-RES [13] = assay: Synergistic cytotoxicity against human MCF7/ADR cells assessed as combination index at 0.25 uM after 72 hrs in presence of 1 uM doxorubicin by MTT assay; type: functional

For N#Cc1c2n(c3c(=O)n(-c4ccccc4)cnc13)CCCC2, which Activity (MCF7 [1]) is on record?
Its Activity is 75.2%.

What about the Activity (MCF7 [2]) of the same compound?
Its Activity is 5.5%.

And the viability at 0.5 µM (MCF7 [3])?
The viability at 0.5 µM was 70.3%.

What about the Activity (MCF7 [4]) of the same compound?
Its Activity is 18%.

What about the “inhibition (INH)” value [5] of the same compound?
Its value is 220%.

What about the Activity (MCF7 [6]) of the same compound?
Its Activity is 7.5%.

What about the selectivity ratio [7] of the same compound?
Its selectivity ratio is 24.2.

And the Activity (MCF7 [8])?
Its Activity is 1.2%.

And the Activity (MCF7 [9])?
Its Activity is 13.4%.

What about the CI (NCI/ADR-RES [10]) of the same compound?
The CI was 0.211.

And the CI (NCI/ADR-RES [11])?
The CI was 0.025.

What about the IC50 (NCI/ADR-RES [12]) of the same compound?
Its IC50 is 6.01 µM.

And the CI (NCI/ADR-RES [13])?
Its CI is 0.433.
